In patent publication US12448382B2, “Heterocyclic compounds for mediating tyrosine kinase 2 activity” (GUANGZHOU INNOCARE PHARMA TECH CO., LTD., priority 2019, dated 2025):

Experiments:
[1] = target: T1, human recombinant JAK2 protein (Homo sapiens, UniProt O60674); experiment: JAK2 Inhibition Assay (HTRF kinase assay); type: biochemical; settings: human recombinant JAK2, 2.5 μM ATP substrate solution
T1 construct: purchased Carna Biosciences 08-045
Protocol: The effect of the compounds of the present invention on the enzymatic activity of JAK2 was assessed by detecting the substrate phosphorylation level in a kinase reaction using the HTRF kinase assay detection kit (Cisbio, Cat. No. 62TK0PEC).
(§1) The experimental method is generally described below:
A reaction buffer contained the following components: an enzyme reaction buffer (1×), 5 mM MgCl2, 1 mM DTT and 0.01% Brij35 from the kit. A JAK2 kinase solution contained a human recombinant JAK2 protein (Carna Biosciences, 08-045) diluted in the reaction buffer to 0.15 ng/μL. A substrate reaction solution contained 2.5 μM ATP and 0.25 μM of a biotinylated tyrosine kinase substrate from the kit in the reaction buffer. A detection solution contained 0.1 ng/μL Eu^3+-labeled cage antibody (Cisbio, 61T66KLB) and 12.5 nM streptavidin-labeled XL665 (Cisbio, 610SAXLB) in the reaction buffer.
(§2) The test compound was dissolved in DMSO to 10 μM, followed by a serial 4-fold dilution with DMSO to a minimum concentration of 0.061 nM. Each concentration was further diluted 40-fold with the reaction buffer.
To a 384-well assay plate (Corning, 3674) were added 4 μL of compound solution and 2 μL of JAK2 kinase solution. The mixture was mixed and incubated at room temperature for 15 minutes, and then added with 4 μL of the substrate reaction solution. After further incubation at room temperature for 30 minutes, the reaction mixture was added with an equal volume of 10 μL detection solution and allowed to stand at room temperature for 30 minutes. An Envision plate reader (Perkin Elmer) was then used to measure the progress of the reaction at 620 nm and 665 nm. The ratio of absorbances at 665 nm and 620 nm was positively correlated with the degree of substrate phosphorylation, therefore the activity of JAK2 kinase was detected. In the experiment, the group without JAK2 kinase protein was treated as the 100% inhibition group, and the group with JAK2 kinase protein but not the test compound was treated as the 0% inhibition group. The percentage of inhibition on JAK2 kinase activity by the test compound was calculated using the following formula: Percentage of inhibition=100−100*(ratiocompound−ratio100% inhibition)/(ratio0% inhibition−ratio100% inhibition)
The IC50 value of the test compound was calculated from 8 concentration points using the XLfit softwere (ID Business Solutions Ltd., UK) by the following formula: Y=Bottom+(Top−Bottom)/(1+10^((log IC50−X)×slope factor))
Where Y was the percentage of inhibition, X was the logarithm of the concentration of the test compound. Bottom was the bottom plateau value of the S-shaped curve, Top was the top plateau value of the S-shaped curve, and slope factor was the slope coefficient of the curve.

[2] = target: T2, human recombinant TYK2 protein (Homo sapiens, UniProt P29597); experiment: TYK2 Inhibition Assay (HTRF kinase assay); type: biochemical; settings: human recombinant TYK2, 11.25 μM ATP substrate solution
T2 construct: purchased Carna Biosciences 08-147
T2 sequence (P29597 871-1187 limits assumed): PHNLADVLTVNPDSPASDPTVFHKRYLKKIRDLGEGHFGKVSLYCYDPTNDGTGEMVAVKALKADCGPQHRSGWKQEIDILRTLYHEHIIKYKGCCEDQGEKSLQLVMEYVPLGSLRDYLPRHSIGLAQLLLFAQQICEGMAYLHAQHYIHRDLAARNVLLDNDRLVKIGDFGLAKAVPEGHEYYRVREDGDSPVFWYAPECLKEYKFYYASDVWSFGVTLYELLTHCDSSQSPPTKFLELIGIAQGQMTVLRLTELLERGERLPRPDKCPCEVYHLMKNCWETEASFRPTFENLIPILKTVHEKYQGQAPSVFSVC
Protocol: The effect of the compounds of the present invention on the enzymatic activity of TYK2 was assessed by detecting the substrate phosphorylation level in a kinase reaction using the HTRF kinase assay detection kit (Cisbio, Cat. No. 62TK0PEC).
as §1
A reaction buffer contained the following components: an enzyme reaction buffer (1×), 5 mM MgCl2 mM DTT and 0.01% Brij35 from the kit. A TYK2 kinase solution contained human recombinant TYK2 protein (Carna Biosciences, 08-147) diluted in the reaction buffer to 0.25 ng/μL. A substrate reaction solution contained 11.25 μM ATP and 0.5 μM of a biotinylated tyrosine kinase substrate from the kit in the reaction buffer. A detection solution contained 0.1 ng/μL Eu^3+-labeled cage antibody (Cisbio, 61T66KLB) and 25 nM streptavidin-1 added XL665 (Cisbio, 610SAXLB) in the reaction buffer.
as §2
To a 384-well assay plate (Corning, 3674) were added 4 μL of compound solution and 2 μL of TYK2 kinase solution. The mixture was mixed and incubated at room temperature for 15 minutes, and then added with 4 μL of the substrate reaction solution. After further incubation at room temperature for 40 minutes, the reaction mixture was added with an equal volume of 10 μL detection solution and allowed to stand at room temperature for 30 minutes. An Envision plate reader (Perkin Elmer) was then used to measure the progress of the reaction at 620 nm and 665 nm. The ratio of absorbances at 665 nm and 620 nm was positively correlated with the degree of substrate phosphorylation, therefore the activity of TYK2 kinase was detected. In the experiment, the group without TYK2 kinase protein was treated as the 100% inhibition group, and the group with TYK2 kinase protein but not the test compound was treated as the 0% inhibition group. The percentage of inhibition on TYK2 kinase activity by the test, compound was calculated using the following formula: Percentage of inhibition=100−100*(ratiocompound−ratio100% inhibition)/(ratio0% inhibition−ratio100% inhibition)
The IC50 value of the test compound was calculated from 8 concentration points using the XLfit software (ID Business Solutions Ltd., UK) by the following formula: Y=Bottom+(Top−Bottom)/(1+10^((log IC50−X)slope factor))
(§3) Where Y was the percentage of inhibition, X was the logarithm of the concentration of the test compound, Bottom was the bottom plateau value of the S-shaped curve, Top was the top plateau value of the S-shaped curve, and slope factor was the slope coefficient of the curve.

[3] = tested on: IL-12-induced IFN-γ secretion in NK92 cells; experiment: Inhibition of IL-12-induced IFN-γ Secretion in NK92 Cells (ELISA); type: cell-based, human; settings: Homo sapiens, 24 hours incubation, 8 concentration points, read-out: IC50 (NK92_IL12/IFNγ)
Protocol: Inhibition of IL-12-induced IFN-γ Secretion in NK92 Cells
The effect of the compounds of the present invention on IFN-γ secretion induced by IL-12 in NK92 cells was evaluated by an enzyme-linked immunosorbent assay (ELISA).
IL-12 receptor is mainly expressed in activated T-cells, NK cells (NK92 is a NK cell line), DC cells, and B-cells. When binding to IL-12, it activates JAK2/TYK2 signal transduction pathway within NK cells and T lymphocytes, thereby inducing secretion of IFN-γ.
as §1
The test compound was dissolved in DMSO to 2.5 mM, followed by a serial 4-fold dilution with DMSO to a minimum concentration of […]. Each concentration was further diluted 50-fold with an FBS-free MEMα medium (Gibco, 12561-056).
NK92 cells (Nanjing Cobioer, CBP60980) were cultured in a complete MEMα medium containing 12.5% FBS (Ausbian, VS500T), 12.5% horse serum (Gibco, 16050-122), 0.02 mM folic acid (Sigma, F8758), 0.2 mM inositol (Sigma, 17850), 0.55 mM β-mercaptoethanol (Gibco, 21985-023), 200 U/mL IL-2 (R&D Systems, 202-1L), and 100 U/mL penicillin (Thermofisher, 15140122). When covering 80-90% of the culture container surface, the cells were dispersed and plated on a 96-well plate (Thermofisher, 167425) with 100,000 cells per well (80 μL of the complete MEMα medium without IL-2). The 96-well plate was then incubated overnight in a 37° C./5% CO2 incubator.
After overnight incubation, 10 μL of the test compound and 10 μL of 50 ng/mL IL-12 (R & D Systems, 219-1L) were added to each well and mix gently, and the 96-well plate was incubated in the 37° C./5% CO2 incubator for additional 24 hours. The plate as centrifuged at 800 rpm for 10 minutes at room temperature and 50 μL of the supernatant from each well was transferred to another 96-well plate (Sigma, CLS3695) coated with anti-IFN-γ antibody. The amount of IFN-γ secretion was detected following the instruction from the Human IFN-γ DuoSet ELISA kit (R & D Systems, DY285B). In the experiment, the group with IL-12 and the test compound being replaced with the MEMα medium was the non-stimulated control group (100% inhibition), and the group with IL-12 and 0.2% DMSO was the stimulated group (0% inhibition). The percentage of inhibition on IL-12 induced IFN-γ secretion in NK-92 cells by the test compound was calculated using the following formula: Percentage of inhibition=100−100*(signalcompound−signalnon-stimulated control)/(signalstimulated control−signalnon-stimulated control)
The IC50 value of the test compound was calculated front 8 concentration points using the XLfit software (ID Business Solutions Ltd., UK) by the following formula: Y=Bottom+(Top−Bottom)/(1+10^((log IC50−X)×slope factor))
as §3

T1 sequence (O60674 826-1132 limits assumed): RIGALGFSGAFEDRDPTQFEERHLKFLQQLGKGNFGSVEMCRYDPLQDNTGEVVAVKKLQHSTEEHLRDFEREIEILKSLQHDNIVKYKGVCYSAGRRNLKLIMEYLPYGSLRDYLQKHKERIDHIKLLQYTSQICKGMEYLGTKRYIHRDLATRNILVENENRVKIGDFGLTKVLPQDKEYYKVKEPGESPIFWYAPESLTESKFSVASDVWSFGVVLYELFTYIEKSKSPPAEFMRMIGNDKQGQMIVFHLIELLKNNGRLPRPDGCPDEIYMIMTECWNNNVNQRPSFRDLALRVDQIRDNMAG

SMILES	IC50 [1] [nM]	IC50 [2] [nM]	IC50 [3] [nM]
Cc1cnc(Nc2cnn(C)c2)nc1N1C[C@@H]2CN(C(=O)[C@@H]3CC3(F)F)C[C@]2(C)C1 (racemic) [Compound 72]	4.5	3.4	824
Cc1cnc(Nc2cnn(C)c2)nc1N1C[C@@H]2CN(Cc3ccno3)C[C@]2(C)C1 (racemic) [Compound 73, cis-4-(5-(isoxazol-5-ylmethyl)-3a-methylhexahydropyrrolo[3,4-c]pyrrol-2(1H)-yl)-5-methyl-N-(1-methyl-1H-pyrazol-4-yl)pyrimidin-2-amine]	6	3.3	278
Cn1cc(Nc2ncc(Cl)c(N3C[C@@]4(C)CN(CC#N)C(=O)[C@@]4(C)C3)n2)cn1 (racemic) [Compound 92, cis-2-(5-(5-Chloro-2-((1-methyl-1H-pyrazol-4-yl)amino)pyrimidin-4-yl)-3a,6a-dimethyl-1-oxohexahydropyrrolo[3,4-c]pyrrol-2(1H)-yl)acetonitrile]	4.1	1.1	398
Cn1cc(Nc2ncc(Cl)c(N3C[C@H]4CN(C(=O)CC#N)C[C@]4(C)C3)n2)cn1 (racemic) [Compound 100, trans-3-(5-(5-chloro-2((1-methyl-1H-pyrazol-4-yl)amino)pyrimidin-4-yl)-3a-methylhexahydropyrrolo[3,4-c]pyrrol-2(1H)-yl)-3-oxopropanenitrile]	5	2.2	763
Cn1cc(Nc2nccc(N3C[C@@H]4CN(Cc5ccno5)C[C@]4(C)C3)n2)cn1 (relative stereo) [Compound 69, cis-4-(5-(isoxazol-5-ylmethyl)-3a-methylhexahydropyrrolo[3,4-c]pyrrol-2(1H)-yl)-N-(1-methyl-1H-pyrazol-4-yl)pyrimidin-2-amine]	156	98	7060
Cn1cc(Nc2ncc(Cl)c(N3C[C@]4(C)CN(C(=O)C5CC5)C[C@]4(C)C3)n2)cn1 [Compound 12, ((3aR,6aS)-5-(5-chloro-2-((1-methyl-1H-pyrazol-4-yl)amino)pyrimidin-4-yl)-3a,6a-dimethylhexahydropyrrolo[3,4-c]pyrrol-2(1H)-yl)(cyclopropyl)methanone]	4.2	1.1	419

Further molecules by falling IC50 [1], results first:

IC50 [1] [nM]	IC50 [2] [nM]	IC50 [3] [nM]	SMILES
170	8.5	4140	C[C@@]12CN(C(=O)C3CC3)C[C@]1(C)CN(c1nc(Nc3cnn(CCO)c3)ncc1F)C2 [Compound 13]
137	21	6770	Cn1cc(Nc2ncc(F)c(N3C[C@]4(C)CN(C(=O)C5CC5)C[C@]4(C)C3)n2)cn1 [Compound 11]
68	14	1320	Cn1cc(Nc2ncc(F)c(N3C[C@]4(C)CN(CC(F)F)C[C@]4(C)C3)n2)cn1 [Compound 14, 4-((3aR,6aS)-5-(2,2-difluoroethyl)-3a,6a-dimethylhexahydropyrrolo[3,4-c]pyrrol-2(1H)-yl)-5-fluoro-N-(1-methyl-1H-pyrazol-4-yl)pyrimidin-2-amine]
15	2.4	3800	CCNC(=O)c1ccc(Nc2ncc(F)c(N3C[C@]4(C)CN(C(=O)C5CC5(F)F)C[C@]4(C)C3)n2)cc1 (stereo partly drawn) [Compound 10, 4-((4-((3aR,6aS)-5-(2,2-difluorocyclopropane-1-carbonyl)-3a,6a-dimethylhexahydropyrrolo[3,4-c]pyrrol-2(IH)-yl)-5-fluoropyrimidin-2-yl)amino)-N-ethylbenzamide]
2.4	1.6	209	Cn1cc(Nc2ncc(Cl)c(N3C[C@@H]4CN(Cc5ccno5)C[C@]4(C)C3)n2)cn1 (racemic) [Compound 74, cis-5-chloro-4-(5-(isoxazol-5-ylmethyl)-3a-methylhexahydropyrrolo[3,4-c]pyrrol-2(1H)-yl)-N-(1-methyl-1H-pyrazol-4-yl)pyrimidin-2-amine]
